# Experimental data taken from patent US20050086714A1, “Eucalyptus transformation method” (AGRIGENESIS BIOSCIENCES LIMITED, priority 2003, published 2005).
# Columns and labels:
# Assay type in all cases: cell-based, Eucalyptus grandis
# [1] = tested on: wild type internode explants of E. grandis clone 8 or C101; assay: Effect of kanamycin level on shoot regeneration from wild type explants
# Experimental: A range of kanamycin concentrations (0, 5, 10, 15, 20, 30, 40 and 50 mg/l) were then tested in four experiments to determine the minimum level of kanamycin for inhibiting regeneration from the wild type internode explants (Table 5).
# Fifty internode explants of the E. grandis clone 8 or C101 were cultured on each of the eight media consisting of EuCo14 supplemented with kanamycin at eight different concentrations, namely 0, 5, 10, 15, 20, 30, 40 and 50 mg/l. […] An excessive level of kanamycin kills non-transformed cells in the explant early in the selection stages. This will reduce the regeneration from transformed cells which would be surrounded by these dead non-transformed cells.
# [2] = tested on: internode explants of Eucalyptus clone C101 co-cultivated with LBA4404 containing pART69; assay: Effect of kanamycin level on shoot regeneration from co-cultivated explants, Exp I
# Experimental: (§1) Internode segment explants were prepared as described in Example 2 above. The explants were placed on a co-cultivation medium in a sideways orientation. The co-cultivation medium was usually EuCo19 (Table 2), although a similar medium could be employed. EuCo19 was based on the regeneration medium EuCo14, supplemented with 100 μM of acetosyringone. In addition, EuCo19 was solidified with gelrite while EuCo14 was solidified with agar. After 50 internode explants were placed on one medium plate, 1-2 μl of Agrobacterium cells were applied to each internode. The plate was then sealed and incubated at 22° C. under low intensity light (300 lux) for three days.
# (§2) After 3 days of co-cultivation, the explants were transferred to regeneration/selection medium containing 20-50 mg/l kanamycin and 250 mg/l timentin. In a number of experiments, 10-30 explants from each treatment were taken from the selection medium at day 4 on the medium and tested for transient transgene expression using a GUS staining procedure described in Example 3.6 below.
# (§3) In a follow-up experiment, 425 internode explants of the E. grandis clone C101 were co-cultivated with LBA4404 containing the binary vector pART69 and then transferred to selection media containing five different concentrations of kanamycin. The regeneration efficiencies were 100%, 17%, 8%, 3% and 1% from kanamycin concentrations of 0, 20, 30, 40 and 50 mg/l, respectively.
# [3] = tested on: co-cultivated internode explants of Eucalyptus clone Eg8; assay: Effect of kanamycin level on shoot regeneration from co-cultivated explants, Exp II
# Experimental: as §1, §2, §3
smiles,measurement,setting,value
"NC[C@H]1O[C@H](O[C@H]2[C@H](O)[C@@H](O[C@H]3O[C@H](CO)[C@@H](O)[C@H](N)[C@H]3O)[C@H](N)C[C@@H]2N)[C@H](O)[C@@H](O)[C@@H]1O [Kanamycin, kanamycin]",Regeneration Rate,"[1]; kanamycin 5 mg/L in EuCo14, Exp 3",2%
same,Regeneration Rate,"[1]; kanamycin 5 mg/L in EuCo14, Exp 4",10%
same,Regeneration Rate,"[1]; kanamycin 10 mg/L in EuCo14, Exp 3",0%
same,Regeneration Rate,"[1]; kanamycin 10 mg/L in EuCo14, Exp 4",0%
same,Regeneration Rate,"[1]; kanamycin 15 mg/L in EuCo14, Exp 3",0%
same,Regeneration Rate,"[1]; kanamycin 15 mg/L in EuCo14, Exp 4",0%
same,Regeneration Rate,"[1]; kanamycin 20 mg/L in EuCo14, Exp 1",0%
same,Regeneration Rate,"[1]; kanamycin 20 mg/L in EuCo14, Exp 2",4%
same,Regeneration Rate,"[1]; kanamycin 30 mg/L in EuCo14, Exp 1",0%
same,Regeneration Rate,"[1]; kanamycin 30 mg/L in EuCo14, Exp 2",0%
same,Regeneration Rate,"[1]; kanamycin 40 mg/L in EuCo14, Exp 1",0%
same,Regeneration Rate,"[1]; kanamycin 40 mg/L in EuCo14, Exp 2",0%
same,Regeneration Rate,"[1]; kanamycin 50 mg/L in EuCo14, Exp 1",0%
same,Regeneration Rate,"[1]; kanamycin 50 mg/L in EuCo14, Exp 2",0%
same,Regeneration Rate,[2]; kanamycin 20 mg/l,17%
same,Regeneration Rate,"[2]; kanamycin 20 mg/l, listed as kanamycin",17%
same,Regeneration Rate,[2]; kanamycin 30 mg/l,8%
same,Regeneration Rate,"[2]; kanamycin 30 mg/l, listed as kanamycin",8%
same,Regeneration Rate,[2]; kanamycin 40 mg/l,3%
same,Regeneration Rate,"[2]; kanamycin 40 mg/l, listed as kanamycin",3%
same,Regeneration Rate,[2]; kanamycin 50 mg/l,1%
same,Regeneration Rate,"[2]; kanamycin 50 mg/l, listed as kanamycin",1%
same,Regeneration Rate,[3]; kanamycin 20 mg/l,29%
same,Regeneration Rate,[3]; kanamycin 30 mg/l,12%
same,Regeneration Rate,[3]; kanamycin 40 mg/l,6%
same,Regeneration Rate,[3]; kanamycin 50 mg/l,4%
